For two compounds, Ki results are on record in PMC117120 (BMC Biochemistry, 2002).

Structures are written as SMILES. Numbering of substitutions follows the chain as printed.

Common to all, as to assay: biochemical
Experiment [1] addresses T1, E148A mutant mouse 5-HT3ASR (Mus musculus, UniProt P23979, E149A).
T1 sequence (P23979 24-483 isoform P23979-2 E149A): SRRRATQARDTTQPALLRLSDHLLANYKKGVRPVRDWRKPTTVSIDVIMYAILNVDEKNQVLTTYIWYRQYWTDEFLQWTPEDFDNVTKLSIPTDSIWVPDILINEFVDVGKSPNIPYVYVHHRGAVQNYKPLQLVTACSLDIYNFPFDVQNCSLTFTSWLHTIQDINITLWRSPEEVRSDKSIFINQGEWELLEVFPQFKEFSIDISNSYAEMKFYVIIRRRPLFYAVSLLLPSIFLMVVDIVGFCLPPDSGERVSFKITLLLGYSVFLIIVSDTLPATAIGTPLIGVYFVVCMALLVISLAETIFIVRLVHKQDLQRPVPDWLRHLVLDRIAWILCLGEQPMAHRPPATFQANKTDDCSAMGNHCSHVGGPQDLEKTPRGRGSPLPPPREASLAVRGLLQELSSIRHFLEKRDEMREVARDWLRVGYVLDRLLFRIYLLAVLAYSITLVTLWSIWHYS

The target in experiment [2] is T2, V143A mutant mouse 5-HT3ASR (Mus musculus, UniProt P23979, V144A).
T2 sequence (P23979 24-483 isoform P23979-2 V144A): T1 sequence (P23979 24-483 isoform P23979-2 E149A) with V121A, A126E

The target in experiment [3] is T3, N151A mutant mouse 5-HT3ASR (Mus musculus, UniProt P23979, N152A).
T3 sequence (P23979 24-483 isoform P23979-2 N152A): T1 sequence (P23979 24-483 isoform P23979-2 E149A) with A126E, N129A

The target of experiment [4] is T4, V141A mutant mouse 5-HT3ASR (Mus musculus, UniProt P23979, V142A).
T4 sequence (P23979 24-483 isoform P23979-2 V142A): T1 sequence (P23979 24-483 isoform P23979-2 E149A) with V119A, A126E

The target in experiment [5] is T5, Q150A mutant mouse 5-HT3ASR (Mus musculus, UniProt P23979, Q151A).
T5 sequence (P23979 24-483 isoform P23979-2 Q151A): T1 sequence (P23979 24-483 isoform P23979-2 E149A) with A126E, Q128A

Experiment [6] has as its target T6, R146A mutant mouse 5-HT3ASR (Mus musculus, UniProt P23979, R147A).
T6 sequence (P23979 24-483 isoform P23979-2 R147A): T1 sequence (P23979 24-483 isoform P23979-2 E149A) with R124A, A126E

By Ki is commonly meant the equilibrium dissociation constant of an inhibitor or competing ligand from its target.

Regarding `c1ccc(Cn2c(N3CCNCC3)nc3ccccc32)cc1` [lerisetron], the Ki was determined as 2.8 ± 0.53 nM in experiment [1]; 1.5 ± 0.41 nM in experiment [2]; 3.7 ± 0.62 nM in experiment [3]; 0.2 ± 0.02 nM in experiment [4]; 1.1 ± 0.21 nM in experiment [5]; 2.3 ± 0.31 nM in experiment [6].

For `COc1cc2c3cc1Oc1cc(ccc1O)C[C@@H]1c4c(cc(OC)c(O)c4Oc4ccc(cc4)C[C@@H]3N(C)CC2)CC[N+]1(C)C` [d-tc, d-tubocurarine], the Ki was 14 ± 1.7 nM in experiment [1]; 22 ± 2.6 nM in experiment [2]; 9.3 ± 1.4 nM in experiment [3]; 4.7 ± 0.87 nM in experiment [4]; 9.3 ± 1.3 nM in experiment [5]; 29 ± 4.9 nM in experiment [6].
